Results taken from patent US7205332B2, “Deoxoartemisinin analogs, process for their preparation, and anticancer agent comprising them” (Industry-Academic Cooperation Foundation, Yonsei University, priority 2003, dated 2007).
In brackets after ≈: the same amount, converted by molar mass. Read-outs that look alike come from different tables or passages of the source.

What was measured:
[1] = tested on: P388: mouse fibroblast leukemia cell; test: micro-culture tetrazolium assay, in vitro cytotoxicity on P388; format: cell-based; settings: for anticancer activity, fold higher than that of mitomycin: versus mitomycin
EL4: mouse thymoma cell = test: micro-culture tetrazolium assay, in vitro cytotoxicity on EL4; format: cell-based; settings: for IC50: read-out: In vitro cytotoxicities (IC50) EL4
[2] = tested on: Bewo: human choriocarcinoma cell; test: micro-culture tetrazolium assay, in vitro cytotoxicity on Bewo; format: cell-based; settings: for IC50: read-out: In vitro cytotoxicities (IC50) Bewo
[3] = tested on: HT-29: human colorectal adenocarcinoma cell; test: micro-culture tetrazolium assay, in vitro cytotoxicity on HT-29; format: cell-based; settings: for IC50: read-out: In vitro cytotoxicities (IC50) HT-29
Method: (§1) The anticancer activities of the deoxoartemisinin dimer and trimer of the present invention were measured by a known micro-culture tetrazolium assay (see Carmichel, J.; DeGraff, W. G; Gazdar, A. F.; Minna, J. D.; Mitchell, J. B., Evaluation of a Tetrazolium-based Semiautomated Colorimetric Assay: Assessment of Chemosensitivity testing, Cancer Res., 1987, 47, 936–42).

[4] = tested on: MCF7: human breast carcinoma cell; test: micro-culture tetrazolium assay, in vitro cytotoxicity on MCF7; format: cell-based
[5] = tested on: SKOV3: human ovarian carcinoma cell; test: micro-culture tetrazolium assay, in vitro cytotoxicity on SKOV3; format: cell-based; settings: SK-OV-3, read-out: In vitro cytotoxicities (IC50) SKOV3
Method: as §1

[6] = tested on: PANC-1: human pancreatic cancer cell; test: micro-culture tetrazolium assay, in vitro cytotoxicity on PANC-1; format: cell-based; settings: for IC50: PANC-1 human pancreatic cancer cell, read-out: In vitro cytotoxicities (IC50) PANC-1
Method: as §1

[7] = tested on: A549: human lung cancer cell; test: micro-culture tetrazolium assay, in vitro cytotoxicity on A549; format: cell-based
water solubility = format: physicochemical
[8] = P388 mouse fibroblast leukemia cell, read-out: In vitro cytotoxicities (IC50) P388
[9] = Bewo human choriocarcinoma cell
[10] = MCF7 human breast carcinoma cell, read-out: In vitro cytotoxicities (IC50) MCF7
[11] = P388 mouse fibroblast leukemia cell
[12] = MCF7 human breast carcinoma cell

In the case of `C[C@H]1[C@@H](CCSCC[C@H]2O[C@@H]3O[C@@]4(C)CC[C@H]5[C@H](C)CC[C@@H]([C@H]2C)[C@@]35OO4)O[C@@H]2O[C@@]3(C)CC[C@H]4[C@H](C)CC[C@@H]1[C@@]24OO3` [Compound (IVa1), 12-(2′-ethylsulfide)deoxoartemisinin dimer], the “anticancer activity, fold higher than that of mitomycin” value ([1]; P388) is reported as “at least 4 fold”, the IC50 [1, 8] is reported as 0.4 µg/mL (≈ 0.642 µM) and the IC50 (EL4: mouse thymoma cell; EL4 mouse thymoma cell) is reported as 0.23 µg/mL (≈ 0.369 µM). The IC50 [2, 9] was 14.2 µg/mL (≈ 22.8 µM), the IC50 [3] was 0.24 µg/mL (≈ 0.385 µM) and the IC50 [4, 10] was 0.017 µg/mL (≈ 0.0273 µM).
In the case of “12-(4′-aminobutyl)deoxoartemisinin dimer [Compound (IVc′)]”, the “In vitro cytotoxicities (IC50) P388” value [1, 11] is reported as >20 µg/mL, the “In vitro cytotoxicities (IC50) EL4” value (EL4: mouse thymoma cell; EL4 mouse thymoma cell) is reported as >20 µg/mL and the “In vitro cytotoxicities (IC50) Bewo” value [2, 9] is reported as >20 µg/mL. The “In vitro cytotoxicities (IC50) HT-29” value [3] was 20.20 µg/mL and the “In vitro cytotoxicities (IC50) MCF7” value [4, 12] was >20 µg/mL.
`C[C@H]1[C@@H](CCNC(=O)CC[C@H]2O[C@@H]3O[C@@]4(C)CC[C@H]5[C@H](C)CC[C@@H]([C@H]2C)[C@@]35OO4)O[C@@H]2O[C@@]3(C)CC[C@H]4[C@H](C)CC[C@@H]1[C@@]24OO3` [Compound (IVc), 12-(2′-amidethyl)deoxoartemisinin Dimer] showed an IC50 [1, 8] of 10.4 µg/mL (≈ 16.4 µM), an IC50 (EL4: mouse thymoma cell; EL4 mouse thymoma cell) of 6.29 µg/mL (≈ 9.92 µM) and an IC50 [2, 9] of 7.5 µg/mL (≈ 11.8 µM). The IC50 [3] was 0.69 µg/mL (≈ 1.09 µM), the IC50 [5] was 12.6 µg/mL (≈ 19.9 µM) and the “anticancer activity, fold higher than that of adriamycin” value ([4]; MCF7, versus adriamycin) was “at least 24 fold”. For the same compound, the “anticancer activity, fold higher than that of mitomycin” value ([4]; MCF7, versus mitomycin) was “at least 200 fold” and the IC50 [4, 10] was 0.005 µg/mL (≈ 0.00789 µM).
`CC(=O)O[C@H]1C(=O)[C@@]2(C)[C@H]([C@H](OC(=O)c3ccccc3)[C@]3(O)C[C@H](OC(=O)[C@H](O)[C@@H](NC(=O)c4ccccc4)c4ccccc4)C(C)=C1C3(C)C)[C@]1(OC(C)=O)CO[C@@H]1C[C@@H]2O` [Taxol, reference compound] gave an IC50 [1, 8] of 2.27 µg/mL (≈ 2.66 µM), an IC50 (EL4: mouse thymoma cell; EL4 mouse thymoma cell) of 1.34 µg/mL (≈ 1.57 µM) and an IC50 [2, 9] of 7.39 µg/mL (≈ 8.65 µM). The IC50 [3] was 0.01 µg/mL (≈ 0.0117 µM), the IC50 [6] was 5.76 µg/mL (≈ 6.75 µM) and the IC50 [5] was 12.3 µg/mL (≈ 14.4 µM).
For `CO[C@@]12[C@H](COC(N)=O)C3=C(C(=O)C(C)=C(N)C3=O)N1C[C@@H]1N[C@@H]12` [Mitomycin, reference compound], the IC50 ([1]; Mus musculus, P388, read-out: In vitro cytotoxicities (IC50) P388) was 1.5 µg/mL (≈ 4.49 µM), the IC50 (EL4: mouse thymoma cell; Mus musculus) was 3.94 µg/mL (≈ 11.8 µM) and the IC50 ([2]; Homo sapiens, BeWo) was 0.85 µg/mL (≈ 2.54 µM). It also gave an IC50 [3] of 0.02 µg/mL (≈ 0.0598 µM), an IC50 ([4]; Homo sapiens, MCF7, read-out: In vitro cytotoxicities (IC50) MCF7) of 0.93 µg/mL (≈ 2.78 µM) and an IC50 ([7]; Homo sapiens, A549, read-out: In vitro cytotoxicities (IC50) A549) of 1.85 µg/mL (≈ 5.53 µM).
With `CC1CCC2C(C)C(CCS(=O)(=O)CCC3OC4OC5(C)CCC6C(C)CCC(C3C)C46OO5)OC3OC4(C)CCC1C32OO4` (centres unmarked) [Compound (IVa2), 12-(2′-sulfonylethyl)deoxoartemisinin dimer] the “In vitro cytotoxicities (IC50) P388” value [1, 11] was 5.60 µg/mL, the “In vitro cytotoxicities (IC50) EL4” value (EL4: mouse thymoma cell; EL4 mouse thymoma cell) was 0.54 µg/mL and the “In vitro cytotoxicities (IC50) Bewo” value [2, 9] was 1.04 µg/mL. For the same compound, the “anticancer activity, fold higher than that of taxol and adriamycin” value ([2]; Bewo, versus taxol and adriamycin) was “at least 6 fold”, the “In vitro cytotoxicities (IC50) HT-29” value [3] was 0.38 µg/mL and the “In vitro cytotoxicities (IC50) MCF7” value [4, 12] was 0.025 µg/mL.
For `C[C@H]1[C@@H](CCNC(=O)CC[C@H](NC(=O)CC[C@H]2O[C@@H]3O[C@]4(C)CC[C@H]5[C@H](C)CC[C@@H]([C@H]2C)[C@@]35OO4)C(=O)NCC[C@H]2O[C@@H]3O[C@]4(C)CC[C@H]5[C@H](C)CC[C@@H]([C@H]2C)[C@@]35OO4)O[C@@H]2O[C@]3(C)CC[C@H]4[C@H](C)CC[C@@H]1[C@@]24OO3` [Compound (IVe), deoxoartemisinin trimer], the “anticancer activity, fold higher than that of adriamycin” value ([1]; P388, versus adriamycin) was “at least 3 fold”, the “anticancer activity, fold higher than that of mitomycin” value ([1]; P388) was “at least 12 fold” and the “anticancer activity, fold higher than that of taxol” value ([1]; P388, versus taxol) was “at least 20 fold”. The IC50 [1, 8] was 0.12 µg/mL (≈ 0.114 µM), the IC50 (EL4: mouse thymoma cell; EL4 mouse thymoma cell) was 1.07 µg/mL (≈ 1.01 µM) and the IC50 [2, 9] was 18.3 µg/mL (≈ 17.3 µM). The IC50 [3] was 0.09 µg/mL (≈ 0.0852 µM), the IC50 [6] was 2.69 µg/mL (≈ 2.55 µM) and the “anticancer activity, fold higher than that of taxol” value ([6]; human pancreatic cancer cell, versus taxol) was “at least 2 fold”. For the same compound, the IC50 [5] was 11.2 µg/mL (≈ 10.6 µM), the IC50 [4, 10] was 0.017 µg/mL (≈ 0.0161 µM) and the IC50 ([7]; A549 human lung cancer cell, read-out: In vitro cytotoxicities (IC50) A549) was 2.45 µg/mL (≈ 2.32 µM). It also gave a melting point of 138 °C.
With `C[C@H]1[C@@H](CCNC(=O)CC[C@H](N)C(=O)NCC[C@H]2O[C@@H]3O[C@@]4(C)CC[C@H]5[C@H](C)CC[C@@H]([C@H]2C)[C@@]35OO4)O[C@@H]2O[C@@]3(C)CC[C@H]4[C@H](C)CC[C@@H]1[C@@]24OO3` [Compound (IVd), 12-[2′-(N-glutamic)-α,β-amide]deoxoartemisinin dimer] the IC50 [1, 8] was 15.6 µg/mL (≈ 21.3 µM), the IC50 (EL4: mouse thymoma cell; EL4 mouse thymoma cell) was 16.5 µg/mL (≈ 22.5 µM) and the IC50 [2, 9] was > 20 µg/mL. For the same compound, the IC50 [3] was 6.5 µg/mL (≈ 8.86 µM), the IC50 [4, 10] was 15.3 µg/mL (≈ 20.8 µM) and the “water solubility relative to artemisinin” value (water solubility; compared with artemisinin) was “five times more water soluble”. For the same compound, the solubility (water solubility; water) was 5210 µg/mL (≈ 7100 µM).
For `COc1cccc2c1C(=O)c1c(O)c3c(c(O)c1C2=O)C[C@@](O)(C(=O)CO)C[C@@H]3O[C@H]1C[C@H](N)[C@H](O)[C@H](C)O1` [Adriamycin, reference compound], the IC50 [1, 8] was 0.39 µg/mL (≈ 0.718 µM), the IC50 (EL4: mouse thymoma cell; EL4 mouse thymoma cell) was 0.67 µg/mL (≈ 1.23 µM) and the IC50 [2, 9] was 6.24 µg/mL (≈ 11.5 µM). For the same compound, the IC50 [3] was 0.1 µg/mL (≈ 0.184 µM) and the IC50 [4, 10] was 0.12 µg/mL (≈ 0.221 µM).
